Key:
RET = RET (Homo sapiens, UniProt P07949); test: HTRF method for testing the inhibitory activity of compounds against RET; assay type: biochemical; conditions: IC50 by nonlinear regression, read-out: RET kinase activity
Protocol: (a) In Vitro Screening Experiment-HTRF Method for Testing the Inhibitory Activity of Compounds Against RET Experimental Procedure: 1. […] 2. The test compound (5 mM stock solution) was diluted 5 folds to 1 mM with 100% dimethyl sulfoxide; the compound was diluted into 10 concentrations at an equal ratio of 1:3 in a 384-well dilution plate. 3. 0.2 μL of the serially diluted compound was added to a 384-well plate using an Echo 550 pipetting system, 2 replicate wells for each concentration, and the final concentration of dimethyl sulfoxide was 0.5% (v/v). […] 6. […] The reaction solution was centrifuged at 1000 g for 30 s, and then sealed, and incubated at room temperature for 30 min. 8. […] 10. […] 11. […] IC50 was calculated with software GraphPad 6.0 by fitting inhibition values and logarithms of compound concentrations to a nonlinear regression (dose response−variable slope).

VEGFR2 = VEGFR2 (Homo sapiens, UniProt P35968); test: HTRF method for testing the inhibitory activity of compounds against VEGFR2; assay type: biochemical; conditions: IC50 by nonlinear regression, read-out: VEGFR2 kinase activity
Protocol: (b) In Vitro Screening Experiment—HTRF Method for Testing the Inhibitory Activity of Compounds Against VEGFR2 Experimental Procedure: 1. […] The test compound (5 mM stock solution) was diluted 5 folds to 1 mM with 100% dimethyl sulfoxide; the compound was diluted into 10 concentrations at an equal ratio of 1:3 in a 384-well dilution plate. 3. […] 6. […] The reaction solution was centrifuged at 1000 g for 30 s, and then sealed, and incubated at room temperature for 40 min. 8. […] 10. […] 11. […] 12. IC50 was calculated with software GraphPad 6.0 by fitting inhibition values and logarithms of compound concentrations to a nonlinear regression (dose response−variable slope).

Ba/F3-KIF5B-RET cell = molecular target: T1, Ba/F3-KIF5B-RET cell (Homo sapiens, UniProt P07949); test: CellTiter-Glo luminescence assay for inhibitory activity against Ba/F3-KIF5B-RET cell; assay type: cell-based; conditions: Ba/F3-KIF5B-RET cells, 72 h
T1 construct: fused on or other part: P33176 (Kinesin-1 heavy chain)
From the text: (c) In Vitro Screening Experiment—CellTiter-Glo Luminescence Assay for Testing the Inhibitory Activity of Compounds Against Ba/F3-KIF5B-RET Cell Experimental Procedure: 1. The mammalian cell expression vector containing human KIF5B-RET cDNA was introduced into Ba/F3 cells using the Neon® transfection system method, and the surviving clones screened by puromycin were subjected to cell growth inhibitory function experiments and Western blotting to verify cell lines with stable and high expression of RET. 2. […] 3. The test compound (5 mM stock) was diluted 2.5 folds to 2 mM with 100% dimethyl sulfoxide; and the compound was diluted into 10 concentrations at an equal ratio of 1:3 in a 384-well dilution plate. 4. […] 6. […] 7. By fitting the data with XLFit 5.0 based on the parameters formula, the IC50 value was calculated as: Y=Bottom+(Top−Bottom)/(1+10^((Log IC50−X)*HillSlope)).

T1 sequence (P07949 whole entry, stated change not applied, the tested form may be a part): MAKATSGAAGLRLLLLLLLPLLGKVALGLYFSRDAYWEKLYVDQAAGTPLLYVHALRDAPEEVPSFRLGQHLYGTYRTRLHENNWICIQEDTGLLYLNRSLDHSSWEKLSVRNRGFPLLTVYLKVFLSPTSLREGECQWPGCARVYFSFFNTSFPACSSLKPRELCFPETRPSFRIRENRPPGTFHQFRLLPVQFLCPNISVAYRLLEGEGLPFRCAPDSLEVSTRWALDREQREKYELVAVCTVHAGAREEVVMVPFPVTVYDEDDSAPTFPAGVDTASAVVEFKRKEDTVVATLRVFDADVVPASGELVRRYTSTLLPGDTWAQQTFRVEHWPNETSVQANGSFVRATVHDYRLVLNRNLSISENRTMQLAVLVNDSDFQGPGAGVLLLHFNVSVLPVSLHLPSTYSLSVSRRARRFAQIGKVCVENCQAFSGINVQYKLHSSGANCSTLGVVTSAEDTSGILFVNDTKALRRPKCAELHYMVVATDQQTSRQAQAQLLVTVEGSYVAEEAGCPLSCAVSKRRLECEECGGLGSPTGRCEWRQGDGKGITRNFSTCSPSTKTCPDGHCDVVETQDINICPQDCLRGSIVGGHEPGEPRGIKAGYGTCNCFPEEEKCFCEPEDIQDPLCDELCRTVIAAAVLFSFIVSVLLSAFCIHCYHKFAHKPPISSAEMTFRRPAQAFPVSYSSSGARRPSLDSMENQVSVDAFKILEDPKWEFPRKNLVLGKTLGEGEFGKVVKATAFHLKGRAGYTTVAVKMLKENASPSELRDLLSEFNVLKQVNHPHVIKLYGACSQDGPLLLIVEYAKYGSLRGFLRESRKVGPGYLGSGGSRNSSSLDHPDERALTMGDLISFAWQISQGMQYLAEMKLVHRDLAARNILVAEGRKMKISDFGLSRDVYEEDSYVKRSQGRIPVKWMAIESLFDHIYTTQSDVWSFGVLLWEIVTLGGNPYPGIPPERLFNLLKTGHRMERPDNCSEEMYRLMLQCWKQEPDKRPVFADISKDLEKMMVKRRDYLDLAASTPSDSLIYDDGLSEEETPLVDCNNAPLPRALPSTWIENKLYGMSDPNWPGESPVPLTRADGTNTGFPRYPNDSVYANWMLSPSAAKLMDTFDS
Sequence of VEGFR2 (P35968 20-1356, species assumed): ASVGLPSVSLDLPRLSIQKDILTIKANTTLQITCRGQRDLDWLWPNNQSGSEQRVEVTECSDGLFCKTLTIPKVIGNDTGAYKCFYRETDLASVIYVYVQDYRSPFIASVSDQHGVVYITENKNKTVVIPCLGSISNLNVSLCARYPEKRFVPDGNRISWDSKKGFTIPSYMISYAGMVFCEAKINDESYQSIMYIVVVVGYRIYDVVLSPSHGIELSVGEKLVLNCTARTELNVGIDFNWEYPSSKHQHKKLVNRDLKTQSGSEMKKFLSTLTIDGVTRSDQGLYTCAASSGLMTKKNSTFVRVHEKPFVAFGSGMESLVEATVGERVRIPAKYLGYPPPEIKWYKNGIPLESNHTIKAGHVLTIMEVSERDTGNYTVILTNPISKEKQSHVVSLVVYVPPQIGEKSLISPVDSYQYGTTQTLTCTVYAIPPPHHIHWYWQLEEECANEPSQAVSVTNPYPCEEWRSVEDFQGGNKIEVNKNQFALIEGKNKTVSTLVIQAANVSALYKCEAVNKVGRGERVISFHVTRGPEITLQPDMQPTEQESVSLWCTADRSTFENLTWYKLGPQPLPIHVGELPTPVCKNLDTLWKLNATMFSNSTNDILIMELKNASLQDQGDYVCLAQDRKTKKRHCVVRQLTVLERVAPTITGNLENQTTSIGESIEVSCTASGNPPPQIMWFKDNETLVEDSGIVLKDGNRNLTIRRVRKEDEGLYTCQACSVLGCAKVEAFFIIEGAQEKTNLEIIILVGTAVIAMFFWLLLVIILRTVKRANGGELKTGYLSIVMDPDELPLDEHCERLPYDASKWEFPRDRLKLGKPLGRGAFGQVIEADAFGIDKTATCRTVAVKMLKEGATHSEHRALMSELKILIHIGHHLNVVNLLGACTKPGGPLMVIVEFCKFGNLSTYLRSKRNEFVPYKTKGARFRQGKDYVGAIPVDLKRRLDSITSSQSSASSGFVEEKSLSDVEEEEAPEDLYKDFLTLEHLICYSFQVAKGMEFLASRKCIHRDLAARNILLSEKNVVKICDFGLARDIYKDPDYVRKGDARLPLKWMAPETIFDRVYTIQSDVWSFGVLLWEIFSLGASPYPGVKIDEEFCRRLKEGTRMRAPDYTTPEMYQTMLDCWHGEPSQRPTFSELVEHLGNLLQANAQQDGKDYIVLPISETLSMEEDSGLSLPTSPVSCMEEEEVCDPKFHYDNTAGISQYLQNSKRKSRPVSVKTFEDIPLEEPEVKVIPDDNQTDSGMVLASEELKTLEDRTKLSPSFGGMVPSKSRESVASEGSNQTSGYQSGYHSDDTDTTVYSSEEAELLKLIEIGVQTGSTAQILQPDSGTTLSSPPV
Sequence of RET (P07949 29-1114): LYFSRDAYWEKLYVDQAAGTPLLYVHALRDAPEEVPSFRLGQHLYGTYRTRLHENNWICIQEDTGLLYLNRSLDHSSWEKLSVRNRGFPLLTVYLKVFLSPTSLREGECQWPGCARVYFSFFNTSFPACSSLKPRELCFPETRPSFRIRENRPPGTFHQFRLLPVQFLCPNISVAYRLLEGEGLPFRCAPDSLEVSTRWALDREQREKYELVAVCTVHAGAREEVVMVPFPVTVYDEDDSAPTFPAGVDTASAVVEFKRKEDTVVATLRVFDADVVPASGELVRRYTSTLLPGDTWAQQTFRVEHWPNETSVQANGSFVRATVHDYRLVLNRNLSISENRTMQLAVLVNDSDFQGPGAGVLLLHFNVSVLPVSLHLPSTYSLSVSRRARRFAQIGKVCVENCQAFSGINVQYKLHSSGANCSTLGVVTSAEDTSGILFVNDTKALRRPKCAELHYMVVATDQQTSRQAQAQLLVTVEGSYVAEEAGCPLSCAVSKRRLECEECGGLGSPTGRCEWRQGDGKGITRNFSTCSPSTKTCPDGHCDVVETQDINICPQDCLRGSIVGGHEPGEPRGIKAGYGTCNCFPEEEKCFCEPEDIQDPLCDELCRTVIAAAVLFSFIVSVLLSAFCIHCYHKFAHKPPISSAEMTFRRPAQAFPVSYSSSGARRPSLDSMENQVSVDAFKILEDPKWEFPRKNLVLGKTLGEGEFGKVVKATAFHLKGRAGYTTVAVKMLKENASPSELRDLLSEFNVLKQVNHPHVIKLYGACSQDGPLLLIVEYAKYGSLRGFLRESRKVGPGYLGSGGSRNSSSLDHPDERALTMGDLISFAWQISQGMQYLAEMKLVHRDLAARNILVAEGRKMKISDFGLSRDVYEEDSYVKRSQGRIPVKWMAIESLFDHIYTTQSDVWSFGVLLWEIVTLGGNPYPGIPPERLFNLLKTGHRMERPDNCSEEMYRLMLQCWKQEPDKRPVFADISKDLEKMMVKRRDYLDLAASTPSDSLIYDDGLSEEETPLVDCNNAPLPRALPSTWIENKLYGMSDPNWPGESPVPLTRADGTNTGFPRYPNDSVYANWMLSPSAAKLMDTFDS

| IC50 (RET) [nM] | IC50 (VEGFR2) [nM] | GI50 (Ba/F3-KIF5B-RET cell) [nM] | SMILES |
| --- | --- | --- | --- |
| 1.63 | 15.6 | 35.5 | C[C@H](Nc1ccc(-c2cc(OCC(C)(C)O)cn3ncc(C#N)c23)cn1)c1ccc(-n2cc(F)cn2)cc1 [Compound 16, (S)-4-(6-((1-(4-(4-fluoro-1H-pyrazol-1-yl)phenyl)ethyl)amino)pyridin-3-yl)-6-(2-hydroxy-2-methylpropoxy)pyrazolo[1,5-a]pyridine-3-carbonitrile] |
| 18.4 | 1210 | 184 | C[C@@H](c1ccc(-n2cc(F)cn2)cc1)N(C)c1ccc(-c2cc(OCC(C)(C)C#N)cn3ncc(C#N)c23)cn1 [Compound 17, (S)-6-(2-cyano-2-methylpropoxy)-4-(6-((1-(4-(4-fluoro-1H-pyrazol-1-yl)phenyl)ethyl)(methyl)amino)pyridin-3-yl)pyrazolo[1,5-a]pyridine-3-carbonitrile] |
| 0.4 | 135 | 40 | C[C@@H](c1ccc(-n2cc(F)cn2)nc1)N(C)c1ccc(-c2cc(OCC(C)(C)C#N)cn3ncc(C#N)c23)cn1 [Compound 18, (S)-6-(2-cyano-2-methylpropoxy)-4-(6-((1-(6-(4-fluoro-1H-pyrazol-1-yl)pyridine-3-yl)ethyl)(methyl)amino)pyridin-3-yl)pyrazolo[1,5-a]pyridine-3-carbonitrile] |
| 0.42 | 41.1 | 41 | C[C@@H](c1ccc(-n2cc(F)cn2)nc1)N(C)c1ccc(-c2cc(N3CCN(C)CC3)cn3ncc(C#N)c23)cn1 [Compound 19, (S)-4-(6-((1-(6-(4-fluoro-1H-pyrazol-1-yl)pyridin-3-yl)ethyl)(methyl)amino)pyridine-3-yl)-6-(4-methylpiperazin-1-yl)pyrazolo[1,5-a]pyridine-3-carbonitrile] |
| 0.25 | 10.1 | 13.5 | C[C@@H](c1ccc(-n2cc(F)cn2)nc1)N(C)c1ccc(-c2cc(OCCO)cn3ncc(C#N)c23)cn1 [Compound 20] |
| 0.82 | 74.9 | 18.1 | C[C@@H](c1ccc(-n2cc(F)cn2)nc1)N(C)c1ccc(-c2cc(N3CCC(C)(O)CC3)cn3ncc(C#N)c23)cn1 [Compound 23, (S)-4-(6-((1-(6-(4-fluoro-1H-pyrazol-1-yl)pyridin-3-yl)ethyl)(methyl)amino)pyridine-3-yl)-6-(4-hydroxy-4-methylpiperidin-1-yl)pyrazolo[1,5-a]pyridine-3-carbonitrile] |
| 0.99 | 64.6 | 5.85 | C[C@@H](c1ccc(-n2cc(F)cn2)nc1)N(C)c1ccc(-c2cc(N3CC(C)(C#N)C3)cn3ncc(C#N)c23)cn1 [Compound 24] |
| 0.54 | 61.1 | 14.7 | C[C@@H](c1ccc(-n2cc(F)cn2)nc1)N(C)c1ccc(-c2cc(N3CCC4(CC3)COC4)cn3ncc(C#N)c23)cn1 [Compound 25, (S)-4-(6-((1-(6-(4-fluoro-1H-pyrazol-1-yl)pyridin-3-yl)ethyl)(methyl)amino)pyridine-3-yl)-6-(2-oxo-7-azaspiro[3.5]nonan-7-yl)pyrazolo[1,5-a]pyridine-3-carbonitrile] |
| 0.245 | 33 | 7.4 | C[C@@H](c1ccc(-n2cc(F)cn2)nc1)N(C)c1ccc(-c2cc(N3CCOCC3)cn3ncc(C#N)c23)cn1 [Compound 26, (S)-4-(6-((1-(6-(4-fluoro-1H-pyrazol-1-yl)pyridin-3-yl)ethyl)(methyl)amino)pyridine-3-yl)-6-morpholinopyrazolo[1,5-a]pyridine-3-carbonitrile] |
| 1.33 | 21.9 | 43.8 | C[C@@H](c1ccc(-n2cc(F)cn2)nc1)N(C)c1ccc(-c2cc(C#CC(C)(C)O)cn3ncc(C#N)c23)cn1 [Compound 27, (S)-4-(6-((1-(6-(4-fluoro-1H-pyrazol-1-yl)pyridin-3-yl)ethyl)(methyl)amino)pyridine-3-yl)-6-(3-hydroxy-3-methyl-1-yn-1-yl)pyrazolo[1,5-a]pyridine-3-carbonitrile] |
| 2.25 | 1190 | 177 | C[C@@H](c1ccc(-n2cc(F)cn2)nc1)N(C)c1ccc(-c2cc(OCC3CC3)cn3ncc(C#N)c23)cn1 [Compound 28, (S)-6-(cyclopropylmethoxy)-4-(6-((1-(6-(4-fluoro-1H-pyrazol-1-yl)pyridin-3-yl)ethyl)(methyl)amino)pyridin-3-yl)pyrazolo[1,5-a]pyridine-3-carbonitrile] |
| 0.36 | 3.29 | 0.75 | C[C@@H](c1ccc(-n2cc(F)cn2)nc1)N(C)c1ccc(-c2cc(-c3cnn(C)c3)cn3ncc(C#N)c23)cn1 [Compound 29, (S)-6-(1-methyl-1H-pyrazol-4-yl)-4-(6-((1-(6-(4-fluoro-1H-pyrazol-1-yl)pyridine-3-yl)ethyl)(methyl)amino)pyridin-3-yl)pyrazolo[1,5-a]pyridine-3-carbonitrile] |
| 0.47 | 175 | 15.1 | CCOc1cc(-c2ccc(N(C)[C@@H](C)c3ccc(-n4cc(F)cn4)nc3)nc2)c2c(C#N)cnn2c1 [Compound 30, (S)-4-(6-((1-(6-(4-fluoro-1H-pyrazol-1-yl)pyridin-3-yl)ethyl)(methyl)amino)pyridine-3-yl)-6-ethoxypyrazolo[1,5-a]pyridine-3-carbonitrile] |
| 4.23 | > 5000 | 224 | C[C@@H](c1ccc(-n2cc(F)cn2)nc1)N(C)c1ccc(-c2cc(OCC#N)cn3ncc(C#N)c23)cn1 [Compound 32, (S)-4-(6-((1-(6-(4-fluoro-1H-pyrazol-1-yl)pyridin-3-yl)ethyl)(methyl)amino)pyridine-3-yl)-6-cyanomethoxypyrazolo[1,5-a]pyridine-3-carbonitrile] |
| 1.55 | 128 | 119 | C[C@@H](c1ccc(-n2cc(F)cn2)nc1)N(C)c1ccc(-c2cc(OCC(F)F)cn3ncc(C#N)c23)cn1 [Compound 34, (S)-4-(6-((1-(6-(4-fluoro-1H-pyrazol-1-yl)pyridin-3-yl)ethyl)(methyl)amino)pyridine-3-yl)-6-(2,2-difluoroethoxy)pyrazolo[1,5-a]pyridine-3-carbonitrile] |
| 6.94 | 819 | 396 | C[C@@H](c1ccc(-n2cc(F)cn2)nc1)N(C)c1ccc(-c2cc(OCC(F)(F)F)cn3ncc(C#N)c23)cn1 [Compound 35, (S)-4-(6-((1-(6-(4-fluoro-1H-pyrazol-1-yl)pyridin-3-yl)ethyl)(methyl)amino)pyridine-3-yl)-6-(2,2,2-trifluoroethoxy)pyrazolo[1,5-a]pyridine-3-carbonitrile] |
| 2.76 | 47 | 19.9 | CC(O)COc1cc(-c2ccc(N(C)[C@@H](C)c3ccc(-n4cc(F)cn4)nc3)nc2)c2c(C#N)cnn2c1 (stereo partly drawn) [Compound 36, (S)-4-(6-((1-(6-(4-fluoro-1H-pyrazol-1-yl)pyridin-3-yl)ethyl)(methyl)amino)pyridine-3-yl)-6-(2-hydroxypropoxy)pyrazolo[1,5-a]pyridine-3-carbonitrile] |
| 0.56 | 7.39 | 5.14 | CCn1cc(-c2cc(-c3ccc(N(C)[C@@H](C)c4ccc(-n5cc(F)cn5)nc4)nc3)c3c(C#N)cnn3c2)cn1 [Compound 38, (S)-6-(1-ethyl-1H-pyrazol-4-yl)-4-(6-((1-(6-(4-fluoro-1H-pyrazol-1-yl)pyridine-3-yl)ethyl)(methyl)amino)pyridin-3-yl)pyrazolo[1,5-a]pyridine-3-carbonitrile] |
| 1.93 | > 5000 | 182 | CCCOc1cc(-c2ccc(N(C)[C@@H](C)c3ccc(-n4cc(F)cn4)nc3)nc2)c2c(C#N)cnn2c1 [Compound 39, (S)-4-(6-((1-(6-(4-fluoro-1H-pyrazol-1-yl)pyridin-3-yl)ethyl)(methyl)amino)pyridine-3-yl)-6-propoxypyrazolo[1,5-a]pyridine-3-carbonitrile] |

| SMILES | IC50 (RET) [nM] | IC50 (VEGFR2) [nM] | GI50 (Ba/F3-KIF5B-RET cell) [nM] |
| --- | --- | --- | --- |
| CC(C)COc1cc(-c2ccc(N(C)[C@@H](C)c3ccc(-n4cc(F)cn4)nc3)nc2)c2c(C#N)cnn2c1 [Compound 33, (S)-4-(6-((1-(6-(4-fluoro-1H-pyrazol-1-yl)pyridin-3-yl)ethyl)(methyl)amino)pyridine-3-yl)-6-isobutoxypyrazolo[1,5-a]pyridine-3-carbonitrile] | 3.04 | > 5000 | 413 |
